Laboratory results: US20250195513A1, “DEGRADATION OF IRAK4 BY CONJUGATION OF IRAK4 INHIBITORS WITH E3 LIGASE LIGAND AND METHODS OF USE” (BeiGene, Ltd., priority 2022, published 2025)
Like-named read-outs stand apart in the source and are kept apart here.

Tests used:
Format in all cases: cell-based
IRAK4 = target: T1, IRAK4 (Homo sapiens, UniProt Q9NWZ3); test: IRAK4 Degradation Assay (Karpas299, HTRF/TR-FRET)
T1 construct: endogenous in cells; host or cells: Karpas299
T1 sequence (Q9NWZ3 1-460): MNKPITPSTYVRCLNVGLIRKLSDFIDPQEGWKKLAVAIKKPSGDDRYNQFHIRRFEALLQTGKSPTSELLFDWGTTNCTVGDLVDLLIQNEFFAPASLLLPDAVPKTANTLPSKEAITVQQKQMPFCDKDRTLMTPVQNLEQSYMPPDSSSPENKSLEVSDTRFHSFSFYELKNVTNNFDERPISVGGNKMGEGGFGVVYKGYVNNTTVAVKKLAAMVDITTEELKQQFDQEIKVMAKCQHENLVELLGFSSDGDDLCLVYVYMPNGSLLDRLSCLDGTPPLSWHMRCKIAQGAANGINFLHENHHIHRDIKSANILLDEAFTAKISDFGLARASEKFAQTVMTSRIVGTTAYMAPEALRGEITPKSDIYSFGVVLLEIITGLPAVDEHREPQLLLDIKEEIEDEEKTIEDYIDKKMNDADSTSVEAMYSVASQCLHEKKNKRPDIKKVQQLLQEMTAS
Method in brief: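 Karpas299 cells at 0.2 million per well were exposed to serially diluted compounds for 24 h or 5 h, then lysed. IRAK4 remaining in lysates was quantified by HTRF (665/620 nm) after overnight antibody incubation at room temperature. Percent degradation was fitted to a four-parameter curve to give IC50 (DC50).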

[1] = system: IL-6 production in human PBMC; test: IL-6 Production Assay in Human PBMC (LPS stimulated); details: Homo sapiens, 5 h; for Emax: maximum inhibition, read-out: IL-6 (PBMC) 5 h IMax
Method: Frozen human PBMC (AllCells) were thawed in RPMI 1640 medium (Thermo Scientific) supplemented with 10% heat-inactivated FBS (Thermo Scientific) and recovered at 37° C. overnight. The next day, PBMC were seeded into 96-well plates at the density of 0.2 million cells per well and treated with compounds for 24 h. Then lipopolysaccharide was added at the final concentration of 10 ng/mL for 5 h. Culture supernatant was collected for subsequent measurement of IL-6 concentration by a TR-FRET-based method (Degorce, François, et al. Current chemical genomics. 2009, 3: 22) as described by the manufacturer manual (Cisbio). FRET signals were measured with PHERAstar FSX reader (BMG Labtech).

[2] = system: TNF-α production in THP-1 cells; test: TNF-α Production Assay in THP-1 Cells (LPS stimulated); details: Homo sapiens, THP-1, 24 h; for Emax: maximum inhibition, read-out: TNF-α (THP-1) 24 h IMax
Method in brief: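 Cells (0.2 million/well) pretreated with compounds for 24 h, then stimulated with LPS at 1 μg/mL final for 24 h. TNF-α in culture supernatant quantified by TR-FRET immunoassay.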

[3] = Karpas-299 cells, 5 h treatment, maximum percentage of degradation, read-out: IRAK4 in Karpas-299 (5 h) Dmax (%)
[4] = Karpas-299 cells, 5 h treatment, read-out: IRAK4 in Karpas-299 (5 h) DC50
[5] = Karpas-299 cells, 24 h treatment, maximum percentage of degradation, read-out: IRAK4 in Karpas-299 (24 h) Dmax (%)
[6] = Karpas-299 cells, 24 h treatment, read-out: IRAK4 in Karpas-299 (24 h) DC50

Dmax (IRAK4; [3])	DC50 (IRAK4; [4])	Dmax (IRAK4; [5])	DC50 (IRAK4; [6])	IC50 [2]	DC50 (IRAK4; Degradation (Karpas-299), comparison table, Linker Type B, read-out: Compound (Linker Type B) DC50)	Dmax (IRAK4; Degradation (Karpas-299), comparison table, Linker Type B, read-out: Compound (Linker Type B) Dmax (%))	Structure (SMILES)	IC50 [1]	Emax [1]	Emax [2]
81%	18 nM	95%	3.6 nM	77 nM			COc1cc2nn([C@H]3CC[C@H](CN4CCN(C(=O)[C@H]5CCN(c6ccc(N7CCC(=O)NC7=O)cc6)C5)CC4)CC3)cc2cc1NC(=O)c1cccn(C2CC2)c1=O [Example 34, 1-cyclopropyl-N-(2-((1S,4r)-4-((4-((S)-1-(4-(2,4-dioxotetrahydropyrimidin-1(2H)-yl)phenyl)pyrrolidine-3-carbonyl)piperazin-1-yl)methyl)cyclohexyl)-6-methoxy-2H-indazol-5-yl)-2-oxo-1,2-dihydropyridine-3-carboxamide]	18 nM	85%	72%
93%	9.1 nM	96%	0.7 nM	34 nM	0.7 nM	96%	COc1cc2nn([C@H]3CC[C@H](N4CCN(C(=O)C5CN(c6ccc(N7CCC(=O)NC7=O)cc6)C5)CC4)CC3)cc2cc1NC(=O)c1cccc(C(F)(F)F)n1 [Example 37, N-(2-((1r,4r)-4-(4-(1-(4-(2,4-dioxotetrahydropyrimidin-1(2H)-yl)phenyl)azetidine-3-carbonyl)piperazin-1-yl)cyclohexyl)-6-methoxy-2H-indazol-5-yl)-6-(trifluoromethyl)picolinamide]	11 nM	90%	82%
95%	2.3 nM	99%	0.4 nM	19 nM			CC(C)(O)c1cc2nn([C@H]3CC[C@H](N4CCN(C(=O)C5CN(c6cc(F)c([C@H]7CCC(=O)NC7=O)c(F)c6)C5)CC4)CC3)cc2cc1NC(=O)c1cccc(C(F)(F)F)n1 [Example 38, N-(2-((1r,4r)-4-(4-(1-(4-((R)-2,6-dioxopiperidin-3-yl)-3,5-difluorophenyl)azetidine-3-carbonyl)piperazin-1-yl)cyclohexyl)-6-(2-hydroxypropan-2-yl)-2H-indazol-5-yl)-6-(trifluoromethyl)picolinamide]	2.1 nM	91%	87%
92%	8.4 nM	99%	1.1 nM	43 nM			CC(C)(O)c1cc2nc(C3CCN(C4CCN(C(=O)C5CN(c6cc(F)c([C@H]7CCC(=O)NC7=O)c(F)c6)C5)CC4)CC3)cn2cc1NC(=O)c1cccc(C(F)(F)F)n1 [Example 126, (R)—N-(2-(1′-(1-(4-(2,6-dioxopiperidin-3-yl)-3,5-difluorophenyl)azetidine-3-carbonyl)-[1,4′-bipiperidin]-4-yl)-7-(2-hydroxypropan-2-yl)imidazo[1,2-a]pyridin-6-yl)-6-(trifluoromethyl)picolinamide]	23 nM	90%	88%
91%	5 nM	97%	0.3 nM	38 nM			CC(C)(O)c1cc2nn(C3CCN(C4CCN(C(=O)[C@@H]5CCN(c6cc(F)c([C@H]7CCC(=O)NC7=O)c(F)c6)C5)CC4)CC3)cc2cc1NC(=O)c1cccc(C(F)(F)F)n1 [Example 161, N-(2-(1′-((R)-1-(4-((R)-2,6-dioxopiperidin-3-yl)-3,5-difluorophenyl)pyrrolidine-3-carbonyl)-[1,4′-bipiperidin]-4-yl)-6-(2-hydroxypropan-2-yl)-2H-indazol-5-yl)-6-(trifluoromethyl)picolinamide]	4.9 nM	90%	85%
